Source: patent US6610749B2, “Polyhydroxylated benzene-containing compounds” (ARCH Development Corporation, priority 2000, dated 2003)

Columns and labels:
[1] = Effect of EGCG on food intake; type: in vivo, rat
Experimental: (§1) Animal. Adult Sprague-Dawley (SD; Harlan) rats (body weight for male: 170-190 g; for female: 125-145 g) and lean and obese Zucker (Charles River Laboratory) rats (body weight for lean male: 240-260 g; for obese male: 420-440 g) were given free access to a standard rat chow diet and water unless indicated. Animal experimental protocols were approved by the University of Chicago institutional animal care and use committee. Rats were maintained at an ambient temperature of 25° C. under a photoperiod of 12-hour light and 12-hour dark.
In vivo treatment. EGCG and other catechins (>98% pure) were isolated from green tea (Camellia sinensis) in our laboratory as described in Liao et al., Biochem. Biophys. Res. Commun. 214: 833-838 (1995). Catechins were dissolved in water for oral administration and in sterile phosphate buffered saline for ip injection. Rats in control groups received vehicle only. […]
Food-restricted, male SD rats were given 12 g rat chow daily, which was about 50% of the amount consumed daily by each control rat. The body weight and the amount of food and water consumed were monitored daily. Food consumption was monitored in rats caged in groups of 3 to 5 animals by weighing food pellets every 24 hr. […]

[2] = Change in composition of blood (serum chemistry, complete blood count); conditions: rat, in vivo
Experimental: (§2) In vivo treatment. EGCG and other catechins (>98% pure) were isolated from green tea (Camellia sinensis) in our laboratory as described in Liao et al., Biochem. Biophys. Res. Commun. 214: 833-838 (1995). Catechins were dissolved in water for oral administration and in sterile phosphate buffered saline for ip injection. Rats in control groups received vehicle only. Testosterone propionate (TP) and 5α-dihydrotestosterone propionate (DHTP) were dissolved in sesame oil and 4 mg in 0.5 ml sesame oil (16 mg/kg body weight) was injected subcutaneously daily, when indicated.
(§3) Food-restricted, male SD rats were given 12 g rat chow daily, which was about 50% of the amount consumed daily by each control rat. The body weight and the amount of food and water consumed were monitored daily. Food consumption was monitored in rats caged in groups of 3 to 5 animals by weighing food pellets every 24 hr. On the final day, rats were anesthetized with methoxyflurane and blood was collected by heart puncture. Sera were collected after centrifugation (10,000 g for 20 min at 4° C.) for biochemical analysis.
Biochemical analysis. […]
Change in composition of blood. Male SD rats were treated with EGCG and ECG for 7 days and then their serum and whole blood was analyzed for various components. […]

[3] = Change in serum nutrients and proximate body composition; type: in vivo, rat
Experimental: as §1, §2, §3
(§4) Biochemical analysis. For biochemical analysis, commercially available radioimmunoassay kits for IGF-I and testosterone (Diagnostic Systems Laboratory, Inc), LH and GH (Amersham), leptin and insulin (Linco Research Inc), and corticosterone (ICN) and analytical kits for glycerol and triglyceride (Sigma) and fatty acids (Roche Molecular Biochemicals) were used. Proximate composition analysis of rats was performed by COVANCE Laboratory (Madison, Wis.). Complete blood count and serum chemistry (e.g., cholesterols, glucose, and enzymatic activities) were performed by the Animal Resource Center at the University of Chicago.
(§5) Statistical analysis. Data are expressed as the mean±sem. The unpaired Student's t-test was used to examine differences between control and the EGCG-injected groups. Analysis of variance and Student-Newman-Keuls multiple range test were used to examine differences among various groups. A probability level of 0.05 was used to indicate significance.
Change in serum nutrients and proximate body composition.

[4] = system: sex hormones, leptin, IGF-I, insulin, LH and GH; assay: Change in levels of sex hormones, leptin, IGF-I, insulin, LH and GH (radioimmunoassay of serum); type: in vivo, rat
Experimental: as §1, §2, §3, §4, §5
Change in levels of sex hormones, leptin, IGF-I, insulin, LH and GH. […] After 7 days of treatment with EGCG (about 85 mg/kg bw), circulating testosterone was reduced by about 70% in male SD rats. Similarly, the circulating level of 17β-estradiol was reduced by 34% in females after 7 days of EGCG treatment. […] However, the pulsatile nature of GH secretion prevented us from making definite conclusions about changes in circulating levels of GH in these rats. The effect of EGCG on sex hormones and various peptide hormones investigated was not mimicked by ECG which has one less hydroxyl group than EGCG.

[5] = type: in vivo, rat
Experimental: as §1, §2, §5
Weight change in accessory sexual organs and other organs. An effect of EGCG dosage on the weight of accessory sexual organs was also observed. The weight of androgen-sensitive organs, such as ventral and dorsolateral prostates, seminal vesicles, coagulating glands, and preputial glands were reduced by 50-70% after 7 days of treatment with EGCG (about 85 mg/kg bw). Weight changes in these sexual organs were modulated in a catechin-specific manner. Relative to control animals sacrificed at the start of the experiment, these accessory sexual organs (except preputial gland) in male SD rats were reduced by 30-50% in weight after 7 days of EGCG treatment. […]

[6] = Exogenous androgen (TP or DHTP) co-administered with EGCG; type: in vivo, rat
Experimental: as §2
Effects of exogenous androgen reverses the effect of EGCG on accessory sexual organs. To determine if the reduction in weight of accessory sexual organs was due to EGCG-induced reduction in androgen levels, we injected male SD rats with androgen and/or EGCG.

[7] = Body weight of rats treated with EGCG; type: in vivo, rat
Experimental: as §1, §2, §3, §5
Body weight of subjects treated with EGCG. […] In male SD rats, the effect of EGCG on body weight was dose-dependent. […] Male SD rats injected daily ip with 26 and 53 mg EGCG/kg bw gained body weight by 17-24% relative to their initial body weight, but lost 5-9% relative to the control after 7 days of treatment. Whereas, male SD rats daily injected ip with 85 mg EGCG/kg bw lost 15-21% of their body weight relative to their initial weight and 30-41% relative to the control after 7 days of treatment. Control rats continued growth and increased their body weight by 25-34% relative to their initial weight (see Table 1). Female SD rats injected daily ip with 12.5 mg EGCG (about 92 mg/kg bw) lost 10% of their body weight relative to their initial weight and 29% relative to the control after 7 days of treatment. Therefore, a dose of EGCG of 70-92 mg/kg body weight was used in most experiments.

[8] = male SD and lean Zucker rats, within 7 to 8 days
[9] = male and female SD rats, 7 days
[10] = female SD rats, 12.5 mg EGCG (about 92 mg/kg bw) ip daily, 7 days
[11] = male SD rats, 85 mg EGCG/kg bw ip daily, 7 days
[12] = male SD rats, 26 and 53 mg EGCG/kg bw ip daily, 7 days

O=C(OC1Cc2c(O)cc(O)cc2OC1c1cc(O)c(O)c(O)c1)c1cc(O)c(O)c(O)c1 (single isomer, unassigned; (-)) [EGCG, (−)epigallocatechin-3-gallate]
less food consumed than control rats ([1]; SD male and female rats, ip): 50-60%
effects of EGCG when administered orally compared with intraperitoneally ([1]; oral administration): diminished or absent
serum total protein, albumin, blood urea nitrogen, creatine, PO4 3−, Na+, K+, Ca2+, Cl−, lactate dehydrogenase, alanine aminotransferase, aspartate aminotransferase, γ-glutamyltranspeptidase [2]: Neither EGCG nor structurally-related ECG caused significant changes
percent water and protein content (proximate composition) ([3]; SD rats treated daily for 7 days): no change
carbohydrate content (proximate composition) ([3]; SD rats treated daily for 7 days, 2.5% in control): 1.3%
fat content (proximate composition) ([3]; SD rats treated daily for 7 days, 4.1% in control): 1.4%
decrease of abdominal fat [3, 8]: 20-35%
decrease of epididymal fat [3, 8]: not epididymal fat
decrease of subcutaneous fat [3, 8]: 40-70%
change in serum cholesterol ([3]; male SD rats): −20%
change in serum glucose ([3]; male SD rats): −32%
change in serum lipids ([3]; male SD rats): −15%
change in serum triglycerides ([3]; male SD rats): −46%
serum level of protein, fatty acids and glycerol ([3]; male SD rats): not altered
loss of abdominal fat ([3]; obese male Zucker rats, within 4 days): 20%
reduction of circulating level of 17β-estradiol ([4]; female SD rats, 7 days): 34%
serum level of GH ([4]; female SD rats, 7 days): reduced in females
dose dependence of effects on serum testosterone, leptin, IGF-I and insulin ([4]; male SD rats): Dose-dependent effects
serum level of GH ([4]; male SD rats, 7 days): increased in males
reduction of circulating testosterone ([4]; male SD rats, about 85 mg/kg bw, 7 days): about 70%
blood level of IGF-I [4, 9]: significant reduction
blood level of insulin [4, 9]: significant reduction
blood level of leptin [4, 9]: significant reduction
reduction of serum level of LH [4, 9]: 40-50%
reduction in weight of androgen-sensitive organs (ventral and dorsolateral prostates, seminal vesicles, coagulating glands, preputial glands) ([5]; about 85 mg/kg bw, 7 days, male rats): 50-70%
reduction in weight of estrogen-sensitive organs (uterus and ovary) ([5]; female SD rats, 7 days of treatment): about 50%
reduction in weight of accessory sexual organs (except preputial gland) relative to control animals sacrificed at the start of the experiment ([5]; male SD rats, 7 days of treatment): 30-50%
EGCG-induced body weight loss, food intake restriction, decreases in circulating leptin, IGF-I, insulin and LH, increase in GH under androgen administration ([6]; male SD rats, androgen co-administered): androgen administration was not able to prevent
prostate weight loss ([6]; male rats injected daily with TP or DHTP (16 mg/kg sc)): did not cause prostate weight loss
effectiveness in reducing body weight compared with 15 mg (about 85 mg/kg) ([7]; 5 or 10 mg EGCG (26 and 53 mg/kg body weight) injected daily, male SD rats): not effective or less effective
body weight loss ([7]; IP injection, SD male and female rats, within 2 to 7 days of treatment): caused acute body weight loss
body weight lost relative to initial weight [7, 10]: 10%
body weight lost relative to the control [7, 10]: 29%
body weight lost relative to initial weight [7, 11]: 15-21%
body weight lost relative to the control [7, 11]: 30-41%
body weight gain relative to initial body weight [7, 12]: 17-24%
body weight lost relative to the control [7, 12]: 5-9%
effect on body weight, dose dependence ([7]; male SD rats, ip daily): dose-dependent

(−)epicatechin-3-gallate [ECG, reference compound]
effect on sex hormones and various peptide hormones, compared with the effect of EGCG ([4]; rats): not mimicked
